What was measured:
Assay in all cases: BIO3-BIO1 mutant enzyme activity in the presence of herbicide, percentage inhibition (fluorometric DAPA assay)
Format in all cases: biochemical
Conditions in all cases: read-out: percentage inhibition
[1] = biological target: T1, Arabidopsis thaliana BIO3-BIO1 (BioDA) mutants (Arabidopsis thaliana, UniProt B0F481, S509R)
T1 construct: with the predicted N-terminal mitochondrial transit peptide removed; 6xHis-tag (N); thrombin cleavage site (N); made in house; host or cells: E. coli BL21 (DE3) bioA
Outline: (§1)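 Percentage inhibition compares activity at one of three herbicide concentrations against DMSO, from o-phthalaldehyde-derivatised DAPA fluorescence (ex 410, em 470 nm). Purified N-His BIO3-BIO1 variants (50 nM, E. coli-expressed) saw herbicide 10 min at 20 °C in pH 8.6 EPPS buffer, then 20 μM KAPA plus 100 μM spermidine for 75 min at 20 °C.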

[2] = biological target: T2, Arabidopsis thaliana BIO3-BIO1 (BioDA) mutants (Arabidopsis thaliana, UniProt B0F481, F370L)
T2 construct: with the predicted N-terminal mitochondrial transit peptide removed; 6xHis-tag (N); thrombin cleavage site (N); made in house; host or cells: E. coli BL21 (DE3) bioA
Outline: as §1

[3] = biological target: T3, Arabidopsis thaliana BIO3-BIO1 (BioDA) mutants (Arabidopsis thaliana, UniProt B0F481, Q350H)
T3 construct: with the predicted N-terminal mitochondrial transit peptide removed; 6xHis-tag (N); thrombin cleavage site (N); made in house; host or cells: E. coli BL21 (DE3) bioA
Outline: as §1

[4] = biological target: T4, Arabidopsis thaliana BIO3-BIO1 (BioDA) mutants (Arabidopsis thaliana, UniProt B0F481, G700A)
T4 construct: with the predicted N-terminal mitochondrial transit peptide removed; 6xHis-tag (N); thrombin cleavage site (N); made in house; host or cells: E. coli BL21 (DE3) bioA
Outline: as §1

[5] = biological target: T5, Arabidopsis thaliana BIO3-BIO1 (BioDA) mutants (Arabidopsis thaliana, UniProt B0F481, S509L)
T5 construct: with the predicted N-terminal mitochondrial transit peptide removed; 6xHis-tag (N); thrombin cleavage site (N); made in house; host or cells: E. coli BL21 (DE3) bioA
Outline: as §1

[6] = biological target: T6, Arabidopsis thaliana BIO3-BIO1 (BioDA) mutants (Arabidopsis thaliana, UniProt B0F481, C388T)
T6 construct: with the predicted N-terminal mitochondrial transit peptide removed; 6xHis-tag (N); thrombin cleavage site (N); made in house; host or cells: E. coli BL21 (DE3) bioA
Outline: as §1

[7] = biological target: T7, Arabidopsis thaliana BIO3-BIO1 (BioDA) mutants (Arabidopsis thaliana, UniProt B0F481, T512G)
T7 construct: with the predicted N-terminal mitochondrial transit peptide removed; 6xHis-tag (N); thrombin cleavage site (N); made in house; host or cells: E. coli BL21 (DE3) bioA
Outline: as §1

[8] = biological target: T8, Arabidopsis thaliana BIO3-BIO1 (BioDA) mutants (Arabidopsis thaliana, UniProt B0F481, P510L)
T8 construct: with the predicted N-terminal mitochondrial transit peptide removed; 6xHis-tag (N); thrombin cleavage site (N); made in house; host or cells: E. coli BL21 (DE3) bioA
Outline: as §1

[9] = biological target: T9, Arabidopsis thaliana BIO3-BIO1 (BioDA) mutants (Arabidopsis thaliana, UniProt B0F481, T512N)
T9 construct: with the predicted N-terminal mitochondrial transit peptide removed; 6xHis-tag (N); thrombin cleavage site (N); made in house; host or cells: E. coli BL21 (DE3) bioA
Outline: as §1

[10] = biological target: T10, Arabidopsis thaliana BIO3-BIO1 (BioDA) mutants (Arabidopsis thaliana, UniProt B0F481, Q517D)
T10 construct: with the predicted N-terminal mitochondrial transit peptide removed; 6xHis-tag (N); thrombin cleavage site (N); made in house; host or cells: E. coli BL21 (DE3) bioA
Outline: as §1

[11] = biological target: T11, Arabidopsis thaliana BIO3-BIO1 (BioDA) mutants (Arabidopsis thaliana, UniProt B0F481, A609M)
T11 construct: with the predicted N-terminal mitochondrial transit peptide removed; 6xHis-tag (N); thrombin cleavage site (N); made in house; host or cells: E. coli BL21 (DE3) bioA
Outline: as §1

[12] = biological target: T12, Arabidopsis thaliana BIO3-BIO1 (BioDA) mutants (Arabidopsis thaliana, UniProt B0F481, C388M)
T12 construct: with the predicted N-terminal mitochondrial transit peptide removed; 6xHis-tag (N); thrombin cleavage site (N); made in house; host or cells: E. coli BL21 (DE3) bioA
Outline: as §1

T4 sequence (B0F481 23-833 G700A): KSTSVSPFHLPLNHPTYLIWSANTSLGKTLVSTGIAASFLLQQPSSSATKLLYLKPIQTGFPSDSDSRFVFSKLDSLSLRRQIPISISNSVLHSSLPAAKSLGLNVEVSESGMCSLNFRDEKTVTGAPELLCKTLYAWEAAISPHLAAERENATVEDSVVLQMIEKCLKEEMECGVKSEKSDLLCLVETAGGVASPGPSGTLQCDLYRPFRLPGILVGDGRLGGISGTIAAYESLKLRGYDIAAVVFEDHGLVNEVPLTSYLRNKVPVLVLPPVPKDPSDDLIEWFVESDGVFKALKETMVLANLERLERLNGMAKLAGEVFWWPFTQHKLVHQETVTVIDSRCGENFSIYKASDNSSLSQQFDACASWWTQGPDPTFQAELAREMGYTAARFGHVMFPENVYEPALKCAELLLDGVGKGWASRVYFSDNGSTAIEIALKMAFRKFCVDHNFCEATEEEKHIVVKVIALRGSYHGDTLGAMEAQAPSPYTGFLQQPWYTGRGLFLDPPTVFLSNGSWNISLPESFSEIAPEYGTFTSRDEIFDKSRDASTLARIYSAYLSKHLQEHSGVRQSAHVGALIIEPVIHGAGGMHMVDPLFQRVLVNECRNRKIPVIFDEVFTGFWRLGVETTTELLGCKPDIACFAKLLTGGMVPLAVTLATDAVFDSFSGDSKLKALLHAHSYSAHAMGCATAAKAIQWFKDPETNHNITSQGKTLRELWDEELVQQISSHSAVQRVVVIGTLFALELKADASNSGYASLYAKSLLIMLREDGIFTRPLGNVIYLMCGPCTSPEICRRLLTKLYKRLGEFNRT
T3 sequence (B0F481 23-833 Q350H): as the sequence (B0F481 23-833 G700A) above, with Q328H, A678G counted along it
T8 sequence (B0F481 23-833 P510L): as the sequence (B0F481 23-833 G700A) above, with P488L, A678G counted along it
T5 sequence (B0F481 23-833 S509L): as the sequence (B0F481 23-833 G700A) above, with S487L, A678G counted along it
T2 sequence (B0F481 23-833 F370L): as the sequence (B0F481 23-833 G700A) above, with F348L, A678G counted along it
T7 sequence (B0F481 23-833 T512G): as the sequence (B0F481 23-833 G700A) above, with T490G, A678G counted along it
T9 sequence (B0F481 23-833 T512N): as the sequence (B0F481 23-833 G700A) above, with T490N, A678G counted along it
T12 sequence (B0F481 23-833 C388M): as the sequence (B0F481 23-833 G700A) above, with C366M, A678G counted along it
T10 sequence (B0F481 23-833 Q517D): as the sequence (B0F481 23-833 G700A) above, with Q495D, A678G counted along it
T11 sequence (B0F481 23-833 A609M): as the sequence (B0F481 23-833 G700A) above, with A587M, A678G counted along it
T6 sequence (B0F481 23-833 C388T): as the sequence (B0F481 23-833 G700A) above, with C366T, A678G counted along it
T1 sequence (B0F481 23-833 S509R): as the sequence (B0F481 23-833 G700A) above, with S487R, A678G counted along it

## CCOC(=O)c1nn(-c2ccc3c(c2)OC(F)(F)C(F)(F)O3)c2cccc(C(C)=O)c2c1=O [Compound A, ethyl 5-acetyl-4-oxo-1-(2,2,3,3-tetrafluoro-1,4-benzodioxin-6-yl)cinnoline-3-carboxylate]
[1]
  inhibition at 1 µM: 15%
[2]
  inhibition at 1 µM: 15%
[3]
  inhibition at 1 µM: 23%
[4]
  inhibition at 1 µM: 0%
[5]
  inhibition at 1 µM: 6%
[6]
  inhibition at 1 µM: 31%
[7]
  inhibition at 1 µM: 5%
[8]
  inhibition at 1 µM: 82%
[9]
  inhibition at 1 µM: 21%
[10]
  inhibition at 1 µM: 22%
[11]
  inhibition at 1 µM: 3%
[12]
  inhibition at 1 µM: 31%

## CCn1c(-c2ccc(Cl)c(Cl)c2)c(C(=O)O)c(=O)c2cc(F)ccc21 [Compound M, 2-(3,4-dichlorophenyl)-1-ethyl-6-fluoro-4-oxo-quinoline-3-carboxylic acid]
[1]
  inhibition at 0.2 µM: 48%
  inhibition at 1 µM: 82%
  inhibition at 5 µM: 96%
[2]
  inhibition at 0.2 µM: 0%
  inhibition at 1 µM: 25%
  inhibition at 5 µM: 80%
[3]
  inhibition at 0.2 µM: 0%
  inhibition at 1 µM: 8%
  inhibition at 5 µM: 20%
[4]
  inhibition at 0.2 µM: 7%
  inhibition at 1 µM: 8%
  inhibition at 5 µM: 6%
[5]
  inhibition at 0.2 µM: 19%
  inhibition at 1 µM: 68%
  inhibition at 5 µM: 94%
[6]
  inhibition at 0.2 µM: 48%
  inhibition at 1 µM: 78%
  inhibition at 5 µM: 95%
[7]
  inhibition at 0.2 µM: 9%
  inhibition at 1 µM: 39%
  inhibition at 5 µM: 77%
[8]
  inhibition at 0.2 µM: 54%
  inhibition at 1 µM: 77%
  inhibition at 5 µM: 94%
[9]
  inhibition at 0.2 µM: 27%
  inhibition at 1 µM: 74%
  inhibition at 5 µM: 93%
[10]
  inhibition at 0.2 µM: 6%
  inhibition at 1 µM: 2%
  inhibition at 5 µM: 0%
[11]
  inhibition at 0.2 µM: 5%
  inhibition at 1 µM: 0%
  inhibition at 5 µM: 11%
[12]
  inhibition at 0.2 µM: 16%
  inhibition at 1 µM: 24%
  inhibition at 5 µM: 41%

## CCn1c(Cn2ccc(C(F)(F)F)n2)cc(=O)c(C(=O)O)c1-c1ccc(Cl)c(Cl)c1 [Compound L, 2-(3,4-dichlorophenyl)-1-ethyl-4-oxo-6-[[3-(trifluoromethyl)pyrazol-1-yl]methyl]pyridine-3-carboxylic acid]
[2]
  inhibition at 0.01 µM: 0%
  inhibition at 0.075 µM: 14%
  inhibition at 0.5 µM: 38%
[3]
  inhibition at 0.01 µM: 0%
  inhibition at 0.075 µM: 16%
  inhibition at 0.5 µM: 38%
[4]
  inhibition at 0.01 µM: 6%
  inhibition at 0.075 µM: 6%
  inhibition at 0.5 µM: 3%
[6]
  inhibition at 0.01 µM: 19%
  inhibition at 0.075 µM: 58%
  inhibition at 0.5 µM: 92%
[8]
  inhibition at 0.01 µM: 35%
  inhibition at 0.075 µM: 88%
  inhibition at 0.5 µM: 97%
[10]
  inhibition at 0.01 µM: 0%
  inhibition at 0.075 µM: 0%
  inhibition at 0.5 µM: 0%
[11]
  inhibition at 0.01 µM: 3%
  inhibition at 0.075 µM: 17%
  inhibition at 0.5 µM: 19%
[12]
  inhibition at 0.01 µM: 10%
  inhibition at 0.075 µM: 18%
  inhibition at 0.5 µM: 34%

## CCn1c(C)c(-c2ccc(F)cc2F)c(=O)c(C(=O)O)c1-c1ccc(Cl)c(Cl)c1 [Compound C, 2-(3,4-dichlorophenyl)-5-(2,4-difluorophenyl)-1-ethyl-6-methyl-4-oxo-pyridine-3-carboxylic acid]
[1]
  inhibition at 0.2 µM: 42%
  inhibition at 1 µM: 87%
  inhibition at 5 µM: 98%
[2]
  inhibition at 0.2 µM: 19%
  inhibition at 1 µM: 24%
  inhibition at 5 µM: 82%
[3]
  inhibition at 0.2 µM: 0%
  inhibition at 1 µM: 2%
  inhibition at 5 µM: 25%
[4]
  inhibition at 0.2 µM: 4%
  inhibition at 1 µM: 7%
  inhibition at 5 µM: 28%
[5]
  inhibition at 0.2 µM: 24%
  inhibition at 1 µM: 85%
  inhibition at 5 µM: 99%
[6]
  inhibition at 0.2 µM: 49%
  inhibition at 1 µM: 78%
  inhibition at 5 µM: 95%
[7]
  inhibition at 0.2 µM: 17%
  inhibition at 1 µM: 57%
  inhibition at 5 µM: 92%
[8]
  inhibition at 0.2 µM: 67%
  inhibition at 1 µM: 84%
  inhibition at 5 µM: 96%
[9]
  inhibition at 0.2 µM: 29%
  inhibition at 1 µM: 74%
  inhibition at 5 µM: 93%
[10]
  inhibition at 0.2 µM: 0%
  inhibition at 1 µM: 0%
  inhibition at 5 µM: 0%
[11]
  inhibition at 0.2 µM: 9%
  inhibition at 1 µM: 5%
  inhibition at 5 µM: 13%
[12]
  inhibition at 0.2 µM: 20%
  inhibition at 1 µM: 17%
  inhibition at 5 µM: 69%

— patent US20260226493A1, “HERBICIDE RESISTANT PLANTS” (SYNGENTA CROP PROTECTION AG, priority 2023, published 2026)
